Measurements reported in ChEMBL document CHEMBL1201862, “PubChem BioAssay data set” (2004).
Calls of active or inactive are those of the source.

Experiments:
[1] = cells
[2] = P. falciparum Dd2 growth inhibitors, dose response, SYBR Green, dry powder samples, set 9 (AID 1159568); format: functional, cell-based
[3] = molecular target: T1, Oxysterols receptor LXR-beta (Homo sapiens, UniProt P55055); format: functional, cell-based;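 further: agonist activity at LXR measured by a cell-based luminescence readout across a dose range, run as a counterscreen for daf-12 agonists; HEK293 cells with Gal4-LXR fusion and GAL4-driven luciferase reporter; potency for activation of Gal4-LXR reporter so compounds are agonists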
T1 sequence (P55055 whole entry): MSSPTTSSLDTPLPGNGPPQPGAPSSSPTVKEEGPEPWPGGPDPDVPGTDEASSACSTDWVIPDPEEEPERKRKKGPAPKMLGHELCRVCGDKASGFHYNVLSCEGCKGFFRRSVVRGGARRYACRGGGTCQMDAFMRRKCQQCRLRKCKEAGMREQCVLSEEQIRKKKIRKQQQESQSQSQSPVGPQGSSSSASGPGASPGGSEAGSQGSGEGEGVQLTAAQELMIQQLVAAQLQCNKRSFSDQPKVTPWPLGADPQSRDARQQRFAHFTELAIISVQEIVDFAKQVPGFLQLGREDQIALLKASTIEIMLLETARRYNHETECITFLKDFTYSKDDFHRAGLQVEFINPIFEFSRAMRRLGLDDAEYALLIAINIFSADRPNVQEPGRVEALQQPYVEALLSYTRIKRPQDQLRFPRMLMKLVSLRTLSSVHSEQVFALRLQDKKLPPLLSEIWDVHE

[4] = HEK293 cell cytotoxicity, dose response, cytotoxicity control, cherry-picks, set 5 (AID 1053117); format: functional, cell-based
[5] = molecular target: Disintegrin and metalloproteinase domain-containing protein 17 (Homo sapiens, UniProt P78536); assay: ADAM17 protease inhibitors, dose response, counter-screen for ADAM10 exosite inhibitor project, biochemical, quenched FRET substrate (AID 743253)
Disintegrin and metalloproteinase domain-containing protein 17, sequence (P78536 whole entry, the tested form may be a part): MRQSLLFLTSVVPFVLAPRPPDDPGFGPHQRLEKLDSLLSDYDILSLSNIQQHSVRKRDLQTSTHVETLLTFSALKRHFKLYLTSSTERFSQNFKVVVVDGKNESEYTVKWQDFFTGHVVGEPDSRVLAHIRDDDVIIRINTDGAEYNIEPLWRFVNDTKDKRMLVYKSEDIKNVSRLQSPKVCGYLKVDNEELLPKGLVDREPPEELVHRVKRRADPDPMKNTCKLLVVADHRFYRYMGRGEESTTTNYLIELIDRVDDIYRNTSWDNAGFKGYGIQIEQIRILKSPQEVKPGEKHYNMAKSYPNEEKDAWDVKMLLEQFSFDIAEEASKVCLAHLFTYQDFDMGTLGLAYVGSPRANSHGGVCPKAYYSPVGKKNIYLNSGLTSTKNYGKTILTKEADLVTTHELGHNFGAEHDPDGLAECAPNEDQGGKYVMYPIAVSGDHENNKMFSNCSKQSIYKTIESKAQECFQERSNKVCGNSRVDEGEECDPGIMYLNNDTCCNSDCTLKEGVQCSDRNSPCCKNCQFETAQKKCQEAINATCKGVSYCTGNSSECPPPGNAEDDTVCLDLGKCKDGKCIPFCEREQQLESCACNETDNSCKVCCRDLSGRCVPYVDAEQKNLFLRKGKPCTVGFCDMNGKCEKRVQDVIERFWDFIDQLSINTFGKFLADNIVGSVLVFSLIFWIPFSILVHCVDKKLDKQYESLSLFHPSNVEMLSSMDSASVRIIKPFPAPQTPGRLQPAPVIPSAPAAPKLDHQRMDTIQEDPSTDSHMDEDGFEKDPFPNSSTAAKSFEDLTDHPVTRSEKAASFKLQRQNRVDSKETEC

[6] = ADAM10 inhibitors, peptide cleavage, dose response, biochemical, QFRET (AID 743254);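 further: ADAM10 enzyme with the DM2 quenched FRET peptide as substrate; EDANS fluorescence gain as the protease cuts the substrate; inhibitor potency against ADAM10 proteolytic activity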
[7] = A549 cell cytotoxicity, dose response, cytotoxicity control, plate reader, cherry-pick, antagonist series (AID 743412); format: functional, cell-based
[8] = MC4R antagonists, dose response, counter-screen for LGR2 antagonist project, cell-based, plate reader, cherry pick (AID 743444); format: functional;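 further: transfected HEK 293 cells stimulated with alpha-MSH peptide; potency of inhibitors of the alpha-MSH evoked signal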
[9] = LGR2 antagonists, dose response, cell-based, HEK293, CRE-luciferase reporter, cherry pick (AID 743342); format: functional
[10] = test system: HEK293; assay: HEK293T cell cytotoxicity, dose response, cytotoxicity control, ATP luminescence, cherry-pick samples (AID 687005); format: functional, cell-based; settings: Homo sapiens;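 further: cells exposed to compound for 48 hours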
[11] = HEK293 Cytotoxicity Assay Measured in Cell-Based System Using Plate Reader - 7071-01_Inhibitor_Dose_CherryPick_Activity_Set2.; format: functional
[12] = A Cell-Based Confirmatory Screen for Compounds that Inhibit VEEV, TC-83 (5).; format: functional
[13] = A Cell-Based Confirmatory Screen for Compounds that Inhibit VEEV, TC-83 (8).; format: functional
[14] = A Cell-Based Confirmatory Screen for Compounds that Inhibit VEEV TC-83 (4).; format: functional
[15] = P. falciparum Dd2 blood-stage growth inhibition, dose response, SYBR Green fluorescence, erythrocytes, dry powder, set 2 (AID 1159574); format: functional, cell-based
[16] = molecular target: NAD-dependent protein deacylase sirtuin-5, mitochondrial (Homo sapiens, UniProt Q9NXA8); assay: SIRT5 deacylase inhibitors, dose response, biochemical, fluorescence imaging, cherry-pick, set 6 (AID 720597)
NAD-dependent protein deacylase sirtuin-5, mitochondrial, sequence (Q9NXA8 whole entry): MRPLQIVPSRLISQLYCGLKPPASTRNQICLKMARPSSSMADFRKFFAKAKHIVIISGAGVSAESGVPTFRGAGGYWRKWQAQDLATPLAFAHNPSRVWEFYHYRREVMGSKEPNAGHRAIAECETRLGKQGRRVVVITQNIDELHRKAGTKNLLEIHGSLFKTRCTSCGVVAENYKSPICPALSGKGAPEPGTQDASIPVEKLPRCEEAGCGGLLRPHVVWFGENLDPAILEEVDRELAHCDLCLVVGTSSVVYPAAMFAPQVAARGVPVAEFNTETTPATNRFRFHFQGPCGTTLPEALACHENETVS

[17] = P. falciparum Dd2 growth inhibitors, dose response, SYBR Green, dry powder samples, set 4 (AID 1159572); format: functional, cell-based

With `COCCN1C=C(C(=O)OC)C(c2ccc(Cl)cc2)C(C(=O)OC)=C1` the AC50 [1] was 10.9 µM (active).
With `O=C(Nc1ccccc1F)N1CCCCN2[C@H](C1)[C@@H](c1ccc(/C=C/c3ccccc3)cc1)[C@@H]2CO` the AC50 [2] was 7.14 µM (active).
In the case of `Cc1ccc(/C=N/NC(=O)c2ccccn2)s1`, the EC50 [3] is reported as > 67.6 µM (inactive).
In the case of `COc1cccc(-c2ccc3c(c2)[C@H]2[C@H](CCN2S(=O)(=O)c2cccc(OC)c2)[C@H](CO)N3)c1`, the AC50 [4] is reported as 26.9 µM (active).
For `Nc1[nH]c(C(=O)c2ccccc2)c(-c2cccc(C(F)(F)F)c2)c1C(=O)NCCc1c[nH]c2ccccc12`, the IC50 [5] was > 69.6 µM (inactive) and the IC50 [6] was > 7.73 µM (active).
With `C[C@H](CO)N1C[C@H](C)[C@H](CN(C)C(=O)Nc2cccc3ccccc23)OCCCC[C@H](C)Oc2ccc(NC(=O)c3ccccc3)cc2C1=O` the AC50 [7] was 48 µM (active), the AC50 [8] was 52.5 µM (active) and the AC50 [9] was 4.88 µM (active).
In the case of `O=C(N[C@@H]1CC[C@@H](CCn2cc(-c3ccccc3)nn2)O[C@H]1CO)c1cnccn1`, the AC50 [10] is reported as 21.8 µM (active) and the AC50 [11] is reported as 21.8 µM (active).
For `CCN1CCN(Cc2nc3ccc([N+](=O)[O-])cc3c(=O)n2-c2ccccc2)CC1`, the IC50 [12] was 0.27 µM (active), the IC50 [13] was 0.32 µM (active) and the IC50 [14] was 0.01 µM (active).
With `COc1ccc(S(=O)(=O)N(C)C[C@@H]2OCc3ccccc3-c3c(n(C)c4ccccc34)C(=O)N([C@H](C)CO)C[C@@H]2C)cc1` the AC50 [15] was 6.36 µM (active).
For `Cc1cccc(S(=O)(=O)N(C)C[C@H]2OCc3cnnn3CCCC(=O)N([C@H](C)CO)C[C@@H]2C)c1`, the AC50 [16] was 23.9 µM (active).
With `COc1ccc2c3c([nH]c2c1)[C@H](CO)N(C(C)=O)CC31CCN(C(=O)Nc2ccc(F)cc2)CC1` the AC50 [17] was 0.834 µM (active).
